As usually defined, the inhibition in vivo is how much of the control response was suppressed. A higher inhibition in vivo goes with a response far below the control.

Each structure is given as a SMILES string.

The text below walks through data of patent US4476137A, “[1-(2-Benzoxazolyl)hydrazino]alkyl nitrile derivatives” (Abbott Laboratories, priority 1983, dated 1984).

One assay has as its system carrageenin pleurisy. As to the kind of experiment: modified carrageenin pleurisy assay (reduction in accumulation of exudate volume and leukocytes). The format is in vivo. As to conditions: Dose 100 (unit not given). The text has this: The anti-inflammatory activity of these compounds was established by using a modification of the carrageenin pleurisy assay described in Vinegar et al. Proc. Soc. Exp. Biol. Med. 143:711 (1973).

The test system of the next assay is dermal Arthus reaction. As to the kind of experiment: reverse passive Arthus reaction test (Type III hypersensitivity), reduction of dermal lesion. The format is in vivo, Male Sprague-Dawley rats. Particulars: 100 mg/kg oral, 30 min before intradermal Anti-B.S.A., lesion measured four hours later, 4 rats per group; for inhibition in vivo at 100 mg/kg: Rattus norvegicus, 4 h. How it is done:
Proc. 35, 774 (1976). Each compound was administered orally to a group of four animals.
The […] passive Arthus reaction test in rats is conducted as follows: Male Sprague-Dawley rats weighing approximately 130-160 g. are used, 4 rats per group. All animals are injected intravenously with 0.5 ml. 0.075% Bovine Serum Albumin (B.S.A.)+2% Evans Blue solution. Each rat then receives an oral dose of drug; one drug is administered per group.
Thirty minutes subsequent to drug dosing, each animal is injected intradermally with 0.05 ml. 1.44% Anti-B.S.A. into the dorsal skin. Four hours later the animals are sacrificed, the dorsal skin reflexed, and the lesion excised. Two perpendicular diameters of each lesion are measured. The average diameters of the lesions from the treated groups are compared with the average diameters from the control group to determine any drug effect.

Turning to `N#CCCN(N)c1nc2ccccc2o1` [3-[1-(2-Benzoxazolyl)hydrazino]propanenitrile], in the assay with carrageenin pleurisy, the “% Inhibition Cells (leukocyte accumulation)” value was determined as 39% and the “% Inhibition Volume exudates” value came out at 61%. In the assay with dermal Arthus reaction, this compound showed an inhibition in vivo at 100 mg/kg of 68%. The compound `CC(C#N)CN(N)c1nc2ccccc2o1` (stereo not shown) [3-[1-(2-benzoxazolyl)hydrazino]-2-methylpropanenitrile] yielded an inhibition in vivo at 100 mg/kg in the assay on dermal Arthus reaction of 45%.

`CC(CC#N)N(N)c1nc2ccccc2o1` (stereo not shown) [3-[1-(2-benzoxazolyl)hydrazino]-3-methylpropanenitrile] showed an inhibition in vivo at 100 mg/kg in the assay with dermal Arthus reaction of 48%. For `N#CCCN(N)c1nc2ccccc2s1` [3-[1-(2-benzthiazolyl)hydrazino]propanenitrile], in the assay with dermal Arthus reaction, the “% Inhibition of lesion of dermal Arthus reaction” value was 59%.

`Cc1cc2oc(N(N)CCC#N)nc2c(C)c1C` [3-[1-(4,5,6-Trimethyl-2-benzoxazolyl)hydrazino]propanenitrile]: the inhibition in vivo at 100 mg/kg in the assay on dermal Arthus reaction stood at 59%. On the same count and under the same terms, in the case of `Cc1cc(C)c2oc(N(N)CCC#N)nc2c1C` [3-[1-(4,5,7-Trimethyl-2-benzoxazolyl)hydrazino]propanenitrile] it was 55%; in that of `Cc1cc(C)c2oc(N(N)CCC#N)nc2c1` [3-[1-(5,7-dimethyl-2-benzoxazolyl)hydrazino]propanenitrile], 59%; in that of `N#CCCN(N)c1nc2cc(C#N)ccc2o1` [3-[1-(5-cyano-2-benzoxazolyl)hydrazino]propanenitrile], 66%.

Turning to `N#CCCN(N)c1nc2cc(F)ccc2o1` [3-[1-(5-fluoro-2-benzoxazolyl)hydrazino]propanenitrile], the inhibition in vivo at 100 mg/kg with dermal Arthus reaction came out at 55%. On the same count and under the same terms, in the case of `N#CCCN(N)c1nc2cc(CS)ccc2o1` [3-[1-(5-mercaptomethyl-2-benzoxazolyl)hydrazino]propanenitrile] it was 40%; in that of `COc1ccc2oc(N(N)CCC#N)nc2c1` [3-[1-(5-methoxy-2-benzoxazolyl)hydrazino]propanenitrile], 67%. Still for that read-out and setting: in the case of `Cc1ccc2oc(N(N)CCC#N)nc2c1` [3-[1-(5-methyl-2-benzoxazolyl)hydrazino]propanenitrile] it was 70%; in that of `N#CCCN(N)c1nc2cc(C(F)(F)F)ccc2o1` [3-[1-(5-trifluoromethyl-2-benzoxazolyl)hydrazino]propanenitrile], 48%.

In the case of `Cc1ccc2nc(N(N)CCC#N)oc2c1` [3-[1-(6-methyl-2-benzoxazolyl)hydrazino]propanenitrile], in the assay on dermal Arthus reaction, the inhibition in vivo at 100 mg/kg was 58%. Still for that read-out and setting: in the case of `Cc1cc2oc(N(N)CCC#N)nc2cc1Cl` [3-[1-(6-methyl-5-chloro-2-benzoxazolyl)hydrazino]propanenitrile] it was 76%; in that of `N#CCCN(N)c1nc2cccc(Cl)c2o1` [3-[1-(7-Chloro-2-benzoxazolyl)hydrazino]propanenitrile], 48%; in that of `Cc1cccc2nc(N(N)CCC#N)oc12` [3-[1-(7-methyl-2-benzoxazolyl)hydrazino]propanenitrile], 47%.

Regarding `CCCCC1C(=O)N(c2ccccc2)N(c2ccccc2)C1=O` [Phenylbutazone, reference compound], in the assay with carrageenin pleurisy, the “% Inhibition Cells (leukocyte accumulation)” value is recorded as 13% and the “% Inhibition Volume exudates” value is 59%. Further, the “% Inhibition of lesion of dermal Arthus reaction” value in the assay on dermal Arthus reaction was “inactive”.
